The test system of series [1] is U-937. Briefly: Antiinflammatory activity in PMA-differentiated human U937 cells assessed as inhibition of LPS-induced TNFalpha secretion at 20 uM preincubated for 2 hrs followed by LPS stimulation and measured after 24 hrs post LPS challenge by ELISA relative to control. The series is classed as functional. In general terms: An ELISA detects its analyte on a solid surface through an enzyme-linked reagent.

Series [2] is described as follows: Cytotoxicity against PMA-differentiated human U937 macrophages assessed as cell viability at 20 uM after 24 hrs by MTT assay relative to untreated control. The series is classed as cell-based, U-937. Conditions: read-out: Activity. Background: Tetrazolium dyes change colour on reduction, which living cells bring about.
The nature of series [3]: Cytotoxicity against PMA-differentiated human U937 macrophages assessed as cell viability at 40 uM after 24 hrs by MTT assay relative to untreated control. The series is classed as cell-based, U-937. Conditions: read-out: Activity.
The test system of series [4] is U-937. Briefly: Antiinflammatory activity in human U937 cells assessed as inhibition of LPS-induced IL-6 production at 10 to 80 uM preincubated for 2 hrs followed by LPS stimulation and measured after 24 hrs post LPS challenge by ELISA. The format is functional, cell-based.
The target in series [5] is Toll-like receptor 4 (Homo sapiens) (UniProt O00206). Briefly: Inhibition of TLR4 in human U937-3xkappaB-LUC cells assessed as inhibition of Aggregatibacter actinomycetemcomitans LPS-induced NF-kappaB activation preincubated for 30 mins followed by LPS stimulation and measured after 6 hrs post LPS challenge by Bright-Glo luciferase reporter gene assay relative to control. On the technique in general: In a reporter assay the amount or activity of a reporter protein is the signal.

Series [6] can be described thus: Cytotoxicity against PMA-differentiated human U937 macrophages assessed as cell viability at 10 uM after 24 hrs by MTT assay relative to untreated control. The format is cell-based, U-937. Conditions: read-out: Activity.
A short description of series [7]: Cytotoxicity against PMA-differentiated human U937 macrophages assessed as cell viability at 80 uM after 24 hrs by MTT assay relative to untreated control. Conditions: read-out: Activity. The series is classed as cell-based, U-937.
Series [8] addresses Toll-like receptor 4 (Homo sapiens) (UniProt O00206). The series is described as follows: Inhibition of TLR4 in human U937-3xkappaB-LUC cells assessed as inhibition of Aggregatibacter actinomycetemcomitans LPS-induced NF-kappaB activation at 20 uM preincubated for 30 mins followed by LPS stimulation and measured after 6 hrs post LPS challenge by Bright-Glo luciferase reporter gene assay relative to control.

The test system of series [9] is U-937. Briefly: Antiinflammatory activity in human U937 cells assessed as inhibition of LPS-induced IL-1beta production at 10 to 80 uM preincubated for 2 hrs followed by LPS stimulation and measured after 24 hrs post LPS challenge by ELISA. The series is classed as functional, cell-based.
Series [10] relates to U-937. Briefly: Antiinflammatory activity in PMA-differentiated human U937 cells assessed as inhibition of LPS-induced TNFalpha secretion at 40 uM preincubated for 2 hrs followed by LPS stimulation and measured after 24 hrs post LPS challenge by ELISA relative to control. The series is classed as functional.
The target in series [11] is Toll-like receptor 4 (Homo sapiens) (UniProt O00206). Briefly: Inhibition of TLR4 in human U937-3xkappaB-LUC cells assessed as inhibition of Aggregatibacter actinomycetemcomitans LPS-induced NF-kappaB activation at 10 uM preincubated for 30 mins followed by LPS stimulation and measured after 6 hrs post LPS challenge by Bright-Glo luciferase reporter gene assay relative to control.

Series [12] has as its system U-937. The series is described as follows: Antiinflammatory activity in PMA-differentiated human U937 cells assessed as inhibition of LPS-induced TNFalpha secretion at 10 uM preincubated for 2 hrs followed by LPS stimulation and measured after 24 hrs post LPS challenge by ELISA relative to control. The series is classed as functional.
The subject of series [13] is U-937. Briefly: Antiinflammatory activity in PMA-differentiated human U937 cells assessed as inhibition of LPS-induced TNFalpha secretion at 80 uM preincubated for 2 hrs followed by LPS stimulation and measured after 24 hrs post LPS challenge by ELISA relative to control. The format is functional.
For series [14], the target named is Toll-like receptor 4 (Homo sapiens) (UniProt O00206). Briefly: Inhibition of TLR4 in human U937-3xkappaB-LUC cells assessed as inhibition of Aggregatibacter actinomycetemcomitans LPS-induced NF-kappaB activation at 5 uM preincubated for 30 mins followed by LPS stimulation and measured after 6 hrs post LPS challenge by Bright-Glo luciferase reporter gene assay relative to control.

For series [15] the target is unchanged. Briefly: Inhibition of TLR4 in human U937-3xkappaB-LUC cells assessed as inhibition of Aggregatibacter actinomycetemcomitans LPS-induced NF-kappaB activation at 50 uM preincubated for 30 mins followed by LPS stimulation and measured after 6 hrs post LPS challenge by Bright-Glo luciferase reporter gene assay relative to control.
Series [16] has as its system U-937. Briefly: Antiinflammatory activity in human U937 cells assessed as inhibition Aggregatibacter actinomycetemcomitans LPS-induced TNFalpha secretion at 10 to 80 uM preincubated for 2 hrs followed by LPS stimulation and measured after 24 hrs post LPS challenge by ELISA. The series is classed as functional, cell-based.
Series [17] deals with U-937. Briefly: Antiinflammatory activity in human U937 cells assessed as inhibition of LPS-induced IL-1beta production at 20 uM preincubated for 2 hrs followed by LPS stimulation and measured after 24 hrs post LPS challenge by ELISA. The format is functional, cell-based.
Series [18] concerns U-937. Briefly: Antiinflammatory activity in human U937 cells assessed as inhibition of LPS-induced IL-8 production at 10 to 20 uM preincubated for 2 hrs followed by LPS stimulation and measured after 24 hrs post LPS challenge by ELISA. The format is functional, cell-based.
Series [19] concerns U-937. Briefly: Antiinflammatory activity in human U937 cells assessed as inhibition of Escherichia coli LPS-induced IL-1beta secretion at 10 to 80 uM preincubated for 2 hrs followed by LPS stimulation and measured after 24 hrs post LPS challenge by ELISA. The series is classed as functional, cell-based.
Series [20] concerns the target Toll-like receptor 4 (Homo sapiens) (UniProt O00206). Briefly: Inhibition of TLR4 in human U937-3xkappaB-LUC cells assessed as inhibition of Aggregatibacter actinomycetemcomitans LPS-induced NF-kappaB activation at 5 to 50 uM preincubated for 30 mins followed by LPS stimulation and measured after 6 hrs post LPS challenge by Bright-Glo luciferase reporter gene assay relative to control.

The subject of series [21] is U-937. The series is described as follows: Antiinflammatory activity in human U937 cells assessed as inhibition of LPS-induced IL-8 production at 40 to 80 uM preincubated for 2 hrs followed by LPS stimulation and measured after 24 hrs post LPS challenge by ELISA. The format is functional, cell-based.
Series [22] has as its system U-937. Briefly: Antiinflammatory activity in human U937 cells assessed as inhibition of LPS-induced IL-1beta production preincubated for 2 hrs followed by LPS stimulation and measured after 24 hrs post LPS challenge by ELISA. The series is classed as functional, cell-based.
Series [23] relates to U-937. Briefly: Antiinflammatory activity in human U937 cells assessed as inhibition of Escherichia coli LPS-induced TNFalpha secretion at 10 to 80 uM preincubated for 2 hrs followed by LPS stimulation and measured after 24 hrs post LPS challenge by ELISA. The series is classed as functional, cell-based.
The subject of series [24] is U-937. Briefly: Antiinflammatory activity in human U937 cells assessed as inhibition Aggregatibacter actinomycetemcomitans LPS-induced IL-1beta secretion at 10 to 80 uM preincubated for 2 hrs followed by LPS stimulation and measured after 24 hrs post LPS challenge by ELISA. The series is classed as functional, cell-based.
For series [25], the target named is T1, Peroxisome proliferator-activated receptor gamma (Homo sapiens) (UniProt P37231).
T1 sequence (whole entry): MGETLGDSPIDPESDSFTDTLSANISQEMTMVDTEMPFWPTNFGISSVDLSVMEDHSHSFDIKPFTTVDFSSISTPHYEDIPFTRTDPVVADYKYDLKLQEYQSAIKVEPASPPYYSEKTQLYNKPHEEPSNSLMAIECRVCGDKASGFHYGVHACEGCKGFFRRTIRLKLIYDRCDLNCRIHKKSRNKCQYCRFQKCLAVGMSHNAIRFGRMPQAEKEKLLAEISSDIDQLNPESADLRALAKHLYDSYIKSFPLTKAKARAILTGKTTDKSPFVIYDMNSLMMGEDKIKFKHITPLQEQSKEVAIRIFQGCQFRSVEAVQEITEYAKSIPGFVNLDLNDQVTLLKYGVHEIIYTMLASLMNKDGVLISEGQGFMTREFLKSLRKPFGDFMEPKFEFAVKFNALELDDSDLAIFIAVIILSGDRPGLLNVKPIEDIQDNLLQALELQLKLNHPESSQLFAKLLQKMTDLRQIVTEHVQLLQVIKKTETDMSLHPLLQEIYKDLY
The series is described as follows: Binding affinity to recombinant human PPARgamma LBD at 40 uM by TR-FRET based green polar-screen PPAR competitor assay.

Series [26] concerns the target Toll-like receptor 4 (Homo sapiens) (UniProt O00206). The series is described as follows: Inhibition of TLR4 in human U937-3xkappaB-LUC cells assessed as inhibition of Escherichia coli LPS-induced NF-kappaB activation at 5 to 50 uM preincubated for 30 mins followed by LPS stimulation and measured after 6 hrs post LPS challenge by Bright-Glo luciferase reporter gene assay relative to control.

Series [27] concerns U-937. Briefly: Antiinflammatory activity in human U937 cells assessed as inhibition of LPS-induced IL-6 production at 40 to 80 uM preincubated for 2 hrs followed by LPS stimulation and measured after 24 hrs post LPS challenge by ELISA. The series is classed as functional, cell-based.
Series [28] relates to U-937. Briefly: Antiinflammatory activity in human U937 cells assessed as inhibition of LPS-induced IL-6 production preincubated for 2 hrs followed by LPS stimulation and measured after 24 hrs post LPS challenge by ELISA. The series is classed as functional.
The subject of series [29] is U-937. The series is described as follows: Antiinflammatory activity in human U937 cells assessed as inhibition of LPS-induced IL-8 production preincubated for 2 hrs followed by LPS stimulation and measured after 24 hrs post LPS challenge by ELISA. The series is classed as functional.
Series [30] relates to U-937. The series is described as follows: Antiinflammatory activity in human U937 cells assessed as inhibition of LPS-induced IL-1beta secretion preincubated for 2 hrs followed by LPS stimulation and measured after 24 hrs post LPS challenge by ELISA. The series is classed as functional.
Series [31] relates to U-937. The series is described as follows: Antiinflammatory activity in PMA-differentiated human U937 cells assessed as inhibition of LPS-induced TNFalpha secretion preincubated for 2 hrs followed by LPS stimulation and measured after 24 hrs post LPS challenge by ELISA relative to control. The format is functional.

Calls of active or inactive are those of the source. The calls are words filed in the database; no cut-off is given here.

Chain of Toll-like receptor 4 (Homo sapiens) (O00206 whole entry): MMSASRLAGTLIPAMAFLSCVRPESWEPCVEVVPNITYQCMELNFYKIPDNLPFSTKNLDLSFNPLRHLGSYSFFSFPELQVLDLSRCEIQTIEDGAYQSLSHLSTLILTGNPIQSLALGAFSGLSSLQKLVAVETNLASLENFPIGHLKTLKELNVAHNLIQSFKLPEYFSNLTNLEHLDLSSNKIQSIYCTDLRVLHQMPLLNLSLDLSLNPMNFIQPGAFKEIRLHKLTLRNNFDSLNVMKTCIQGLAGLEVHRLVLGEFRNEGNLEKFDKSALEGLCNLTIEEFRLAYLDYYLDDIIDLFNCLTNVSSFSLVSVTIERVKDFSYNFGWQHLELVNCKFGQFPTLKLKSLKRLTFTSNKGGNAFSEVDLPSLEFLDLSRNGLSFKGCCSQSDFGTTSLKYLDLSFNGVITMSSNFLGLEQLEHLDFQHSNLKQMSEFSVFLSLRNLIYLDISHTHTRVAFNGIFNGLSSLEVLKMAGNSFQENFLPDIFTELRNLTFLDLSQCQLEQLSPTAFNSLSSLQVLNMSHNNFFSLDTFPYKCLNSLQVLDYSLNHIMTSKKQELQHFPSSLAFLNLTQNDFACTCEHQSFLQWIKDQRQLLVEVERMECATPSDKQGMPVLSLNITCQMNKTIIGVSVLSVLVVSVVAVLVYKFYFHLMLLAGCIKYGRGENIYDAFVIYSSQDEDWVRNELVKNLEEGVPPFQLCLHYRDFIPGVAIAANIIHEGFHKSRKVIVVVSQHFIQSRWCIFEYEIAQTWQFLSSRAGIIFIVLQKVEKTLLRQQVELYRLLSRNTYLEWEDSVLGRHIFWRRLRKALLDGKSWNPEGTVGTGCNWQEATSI

In general, inhibition refers to how much of the control response was suppressed. Take `CCC/C=C1\OC(=O)c2cc(Oc3c(O)cc(O)cc3CCCCC)c(OC)cc21`: the inhibition at 20 µM with U-937 [1] came out at 0%. For the same molecule, the viability at 24 h, 20 µM in [2] was 101%. For the same molecule, in series [3], the viability at 24 h, 40 µM was determined as 38%. Moreover, the inhibition result in the series on U-937 [4] and with U-937 [9] was “inactive” throughout. In addition, the inhibition result in [5] was “Dose-dependent effect”; in series [8], 60%; in series [11], 28%; in series [14] it was 26%; in [15], 99%. Besides, the viability at 24 h, 10 µM in series [6] stood at 117%. Moreover, the viability at 24 h, 80 µM in [7] is 10%. The inhibition at 40 µM in the series on U-937 [10] came out at 90%. In the series with U-937 [12], the inhibition at 10 µM worked out at 0%. Besides, in the series on U-937 [13], the inhibition at 80 µM worked out at 100%.
Take `CCCCCc1c(Oc2cc(OC)cc(C(=O)CCCC)c2C(=O)OC)c(O)cc(O)c1C(=O)O`: the inhibition entry (with U-937 [16]; in the series with U-937 [19]; in series [20]; with U-937 [21]; with U-937 [23]; with U-937 [24]) was “Active” throughout. For the same molecule, the inhibition result (in [26]; in the series with U-937 [27]) was “Active” throughout. Besides, the inhibition entry with U-937 [17] and in the series with U-937 [18] was “inactive” throughout. The inhibition at 20 µM in the series with U-937 [1] is 0%. Moreover, the viability at 24 h, 20 µM in [2] came out at 86%. Also, the viability at 24 h, 40 µM in series [3] amounted to 67%. Besides, the inhibition entry in series [5] is “Dose-dependent effect”; in series [8], 75%; in the series on U-937 [22], “Dose-dependent effect”; in series [11], 52%; in [14], 37%; in [15], 98%. For the same molecule, the viability at 24 h, 10 µM in series [6] was determined as 96%. The viability at 24 h, 80 µM in series [7] worked out at 48%. Moreover, the inhibition at 40 µM in the series on U-937 [10] came to 55%. Besides, the inhibition at 10 µM with U-937 [12] amounted to 0%. The result in [25] was Active. Further, the inhibition at 80 µM with U-937 [13] amounted to 100%.
With `Cc1ccc(S(=O)(=O)/C=C/C#N)cc1`, the “inhibition (INH)” value with U-937 [28] turned out to be 99.2%; in the series on U-937 [29], 99.1%; with U-937 [30], 95.9%; in the series with U-937 [31], 99.5%. The inhibition in series [5] was 99.3%.

Values taken from ChEMBL document CHEMBL4261648, “Lobaric acid and pseudodepsidones inhibit NF-κB signaling pathway by activation of PPAR-γ” (Bioorg Med Chem, 2018).
